This data set in a line: solubility of ivermectin in various solvents. Format: physicochemical. An excerpt:
The table below illustrates the solubility of ivermectin in various solvents: […]

Consider Ivermectin, for which the “Maximum % solubility of ivermectin in the solvent concerned (weight/weight)” value reads like this: (solvent: N-methyl-2-pyrrolidone) 58.13 % (weight/weight); (solvent: Propylene glycol) 21.83 % (weight/weight); (solvent: Propylene glycol/oleyl alcohol (4 parts/2 parts)) 27.31 % (weight/weight); (solvent: Triacetin) 7.22 % (weight/weight).

Values taken from patent publication US8598129B2, “Topical application of ivermectin for the treatment of dermatological conditions/afflictions” (Galderma S.A., priority 2003, dated 2013).
